The source of these data is US6762174B1 (priority 1998, dated 2004).

Several values for one entry are separate records, joined by “and”; a condition that tells them apart may be missing. Equal entries are not always repeated. Where two headings read alike, the source gives them in different places. Marks after values point to notes of the source that are not given here.

For series [1] the following is noted: Taxol 40 mg/kg IV.
A short description of series [2]: Paclitaxel toxicity, first study: body weight and mortality. It is filed as in vivo, female non-tumor-bearing athymic (NCr-nu) mice. The settings on record: BT 0 mg. The protocol: The effect of combining BT with paclitaxel (PAC, or TAXOL™) on the toxicity of paclitaxel was investigated. In a first study, groups of 10 female non-tumor-bearing athymic (NCr-nu) mice were administered paclitaxel i.v. at doses of 50 and 30 mg/kg/dose on a qld×5 schedule, which means once each day for five days. Paclitaxel (PAC) was in 12.5% cremophor/12.5% ethanol/75% saline alone, or in combination with 30 mg/kg BT (first dissolved in saline) and delivered as a single i.v. injection (0.1 cc/10 gm body weight). BT was also administered on a qld×5 schedule. Body weights were measured twice a week and survival data was recorded daily. The study was terminated on day 21.
Weight loss values reflect the lowest recorded weight, which was on day 7 for all groups. Importantly, there were fewer deaths when BT was coadministered with either 30 mg or 50 mg paclitaxel.
For the group receiving 50 mg paclitaxel, the survival difference was statistically significant (log rank=6.41, p=0.0113). There were 9 deaths on day 21 with 50 mg PAC alone, but only 2 deaths when 30 mg BT was administered with 50 mg PAC. When BT was coadministered with 30 mg PAC there was only 1 death on day 21, which was due not to toxicity, but to a technician error. By contrast, there were 2 toxic deaths with 30 mg PAC alone.

Series [3] relates to anti-Pn14 antibodies (Pn14-Tetanus Toxin antigen). More on the design: species or system BALB/c female mice. The settings on record: mouse, in vivo.
The test system of series [4] is human hematopoietic progenitor cells (CD34+ cells). The series can be described thus: Blood cell stimulation: CD34+ suspension culture, lineage marker ELISA. It is filed as cell-based. As to the method: A 96-well-based suspension culture system (Warren et al, Stem Cells 13:167 (1995) for human hematopoietic progenitor cells was used to monitor the commitment and differentiation of CD34+ cells in vitro. Expression of maturation and lineage markers on the cells in culture were measured by ELISA. […] A combination of growth factors was added that stimulates the expression of the appropriate lineage markers. The culture consisted of: IMDM plus 15% FBS, 0.5 ng/ml IL-3, 20 ng/ml SCF, 1 unit/ml EPO, 1 ng/ml GCSF and the indicated concentrations of test compounds. The cells were then fixed with a glutaraldehyde-paraformaldehyde mixture, attaching the cells firmly to the plastic. An ELISA was performed (Warren et al, Stem Cells 13:167 (1995)), using appropriate primary antibodies directed against cell surface markers. The expression of three different lineage markers was measured: CD14 (monocyte), CD15 (neutrophil), and glycophorin A (erythroid).

The subject of series [5] is delayed type hypersensitivity (DTH) response to oxazalone (OX). Set-up: species or system mice. The conditions noted are these: mouse, in vivo.
Series [6] has as its system Hybridoma cells (ATCC #CRL-8014, OKT-8). As to the kind of experiment: Production of monoclonal antibodies from hybridomas (sandwich ELISA). It is filed as cell-based. The settings on record: 200 ρg/ml vs control. The protocol: Hybridoma cells (ATCC #CRL-8014, OKT-8, secreting an IgG2 anti-human T-cell subset antibody) were growth with or without N-carbobenzoxy-β-alanyl-taurine zinc salt in T25 culture flasks. Cells were inoculated at a density of 10,000 cells/ml and maintained below 500,000 cells/ml in 5 mls of protein-free media containing HyQ-PF-MAB from Hyclone. Aliquots were assayed for Mab production by a sandwich ELISA. Aliquots were diluted to be within the standard range and added to plates precoated with goat anti-mouse IgG by incubating two hours at room temperature. Wells were washed and reacted with diluted supernatants, then washed and detected with peroxidase labeled anti-mouse antibodies.

Setting [7] is: Study 2: 1 ug/ml, 1700 cells per well.

Consider `CC(=O)O[C@H]1C(=O)[C@@]2(C)[C@H]([C@H](OC(=O)c3ccccc3)[C@]3(O)C[C@H](OC(=O)[C@H](O)[C@@H](NC(=O)c4ccccc4)c4ccccc4)C(C)=C1C3(C)C)[C@]1(OC(C)=O)CO[C@@H]1C[C@@H]2O` [PAC, paclitaxel], for which the “Percent Body Weight Loss From Day 0” value stood at 3.8% in series [1] (day 1); 10.7% in series [1] (day 5); 11.0% in series [1] (day 6); 15.2% in series [1] (day 7); 17.2% in series [1] (day 8); 17.5% in series [1] (day 9). The “Percent Body Weight Loss From Day 0” value is reported as 14.6% in series [1] (day 10); 11.8% in series [1] (day 11); 10.4% in series [1] (day 12); 7.8% in series [1] (day 13); −1.2% in series [1] (day 21). Also, the deaths in series [2] (PAC 30 mg, Day 1) came to 0; in series [2] (PAC 30 mg, Day 7) it was 1; in series [2] (PAC 30 mg, Day 10), 2; in series [2] (PAC 30 mg, Day 14) it was 2; in series [2] (PAC 30 mg, Day 21), 2. The mean weight in series [2] (PAC 30 mg, Day 1) is listed as 19 gm; in series [2] (PAC 30 mg, Day 7) it was 14 gm; in series [2] (PAC 30 mg, Day 10), 15 gm; in series [2] (PAC 30 mg, Day 14), 18 gm; in series [2] (PAC 30 mg, Day 21), 23 gm; in series [2] (PAC 50 mg, Day 1), 19 gm. Moreover, the mean weight in series [2] (PAC 50 mg, Day 7) amounted to 13 gm; in series [2] (PAC 50 mg, Day 10), 12 gm; in series [2] (PAC 50 mg, Day 14), 14 gm; in series [2] (PAC 50 mg, Day 21), 21 gm. Moreover, the “% weight change” value in series [2] (PAC 30 mg, Day 7) is −26.3%; in series [2] (PAC 30 mg, Day 10) it was −21.1%; in series [2] (PAC 30 mg, Day 14), −5.3%; in series [2] (PAC 30 mg, Day 21), “+21.1%”; in series [2] (PAC 50 mg, Day 7), −31.6%; in series [2] (PAC 50 mg, Day 10), −36.8%. The “% weight change” value was −26.3% in series [2] (PAC 50 mg, Day 14) and “+10.5%” in series [2] (PAC 50 mg, Day 21). Moreover, the “deaths (cummul.)” value in series [2] (PAC 50 mg, Day 1) came out at 0; in series [2] (PAC 50 mg, Day 7) it was 1; in series [2] (PAC 50 mg, Day 10), 9; in series [2] (PAC 50 mg, Day 14), 9; in series [2] (PAC 50 mg, Day 21), 9.
For `O=C(CCNC(=O)OCc1ccccc1)NCCOP(=O)(O)O` [Taurox-BOP, N-carboxybenzoxy-β-alanyl-ethanolamine phosphate], in series [3], the “Mean Change in O.D. from pretest, Day 4” value turned out to be 0 and the “Mean Change in O.D. from pretest, Day 14” value was found to be 366. The “Mean Change in O.D. from pretest, Day 14” value in series [3] (ip) is 877 and 515. Further, in series [4] (Study 1: 1 ng/ml compound), the “Percent difference (relative to control), monocytes” value is recorded as 18%; the “Percent difference (relative to control), neutrophils” value is 21%; the “Percent difference (relative to control), red blood cells” value was found to be 0%. In addition, in series [4] (setting [7]), the “Percent difference (relative to control), CD34 cells” value worked out at 33%; the “Percent difference (relative to control), RBC” value is on record as 55%; the “Percent difference (relative to control), monocytes” value stood at 9%.
Consider `NCCC(=O)NCCS(=O)(=O)O` [Taurox-S, β-alanyl-taurine], for which, in series [3], the “Mean Change in O.D. from pre-boost 10 days after boost with UNCONJUGATED polysaccharide” value was 204; the “Mean Change in O.D. from pretest, Day 4” value is listed as 2.9; the “Mean Change in O.D. from pretest, Day 14” value is listed as 697. Also, the “Mean Change in O.D. from pretest, Day 14” value in series [3] (ip) is 681 and 671. Besides, in series [4] (Study 1: 1 ng/ml compound), the “Percent difference (relative to control), monocytes” value is 47%; the “Percent difference (relative to control), neutrophils” value turned out to be 55%; the “Percent difference (relative to control), red blood cells” value is listed as 50%.
For “N-carbobenzoxy-β-alanyl-taurine zinc salt”, in series [5], the “Major DTH at 24 hrs” value is given as 50*, the “Major DTH at 48 hrs.” value was determined as 50, the “Major DTH at either 24 or 48 hrs.” value was 60 and the “Moderate DTH at 24 hrs” value was 70. Also, in series [5], the “response rate, moderate DTH at 24 hrs” value was “eight of ten”; the “total treated animals with major immune response” value amounted to 14; the “total treated animals with major response” value was 21. Moreover, in series [5] (iv), the “Major DTH at 24 hrs” value was 20 and 10; the “Major DTH at 48 hrs.” value is 20 and 10. Besides, in series [6], the “Increase of IgG μg/ml” value is recorded as 316% and the “Increase of IgG ρg/cell” value was 93%.
